# Where a SMILES comes first, the peptide text is derived from it. Bridges are numbered along the chain shown (N, C = ends). [ ]: non-standard residue; d: D form. The star is where a group is joined. hPhe(3-Cl-4-CF3) = N[C@@H](CCc1ccc(C(F)(F)F)c(Cl)c1)C(=O)O; NPrPhe(4-CF3) = CCCN[C@@H](Cc1ccc(C(F)(F)F)cc1)C(=O)O; NMeGly(cPent) = CN[C@H](C(=O)O)C1CCCC1; Pro(4,4-F2) = O=C(O)[C@@H]1CC(F)(F)CN1; Pro(4,4-Me2) = CC1(C)CN[C@H](C(=O)O)C1; Pro(4S-Me) = C[C@@H]1CN[C@H](C(=O)O)C1; Hyp = O=C(O)[C@@H]1C[C@@H](O)CN1; NMeD = CN[C@@H](CC(=O)O)C(=O)O; NMeL = CN[C@@H](CC(C)C)C(=O)O; Morpholide = C1CN(*)CCO1; Ac5c = NC1(C(=O)O)CCCC1; Aze = O=C(O)[C@@H]1CCN1; Ac4c = NC1(C(=O)O)CCC1; Sar = CNCC(=O)O
# Legend:
# [1] = biological target: GDP-bound NRAS wild-type protein (Homo sapiens, UniProt P01111); test: Binding to NRAS by surface plasmon resonance (SPR), Single Cycle Kinetics; conditions: SPR, GDP-bound NRAS wild-type protein vs GDP-bound KRAS wild-type protein
# GDP-bound NRAS wild-type protein, sequence (P01111 whole entry): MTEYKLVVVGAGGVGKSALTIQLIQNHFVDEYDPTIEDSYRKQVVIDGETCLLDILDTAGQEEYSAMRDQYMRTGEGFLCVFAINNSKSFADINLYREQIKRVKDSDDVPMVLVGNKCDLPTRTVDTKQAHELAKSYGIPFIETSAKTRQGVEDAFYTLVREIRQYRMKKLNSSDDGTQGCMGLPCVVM
# [2] = biological target: GDP-bound HRAS wild-type protein (Homo sapiens, UniProt P01112); test: Binding to HRAS by surface plasmon resonance (SPR), Single Cycle Kinetics; conditions: SPR, GDP-bound HRAS wild-type protein vs GDP-bound KRAS wild-type protein
# GDP-bound HRAS wild-type protein, sequence (P01112 whole entry): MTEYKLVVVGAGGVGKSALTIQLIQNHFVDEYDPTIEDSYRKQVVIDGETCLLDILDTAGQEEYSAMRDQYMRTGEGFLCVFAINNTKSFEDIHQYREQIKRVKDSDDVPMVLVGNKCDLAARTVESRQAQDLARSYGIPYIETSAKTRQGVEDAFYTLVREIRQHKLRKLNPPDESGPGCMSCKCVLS
# [3] = tested on: human lung cancer strain NCI-H441;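 also: cell proliferation inhibition after four days measured by CellTiter-Glo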
SMILES,NRAS/KRAS (ratio of KD value for NRAS to KD value for KRAS) [1],HRAS/KRAS (ratio of KD value for HRAS to KD value for KRAS) [2],IC50 [3] [nM],NRAS/KRAS (ratio of KD value with respect to NRAS to KD value with respect to KRAS) [1],HRAS/KRAS (ratio of KD value with respect to HRAS to KD value with respect to KRAS) [2]
CCCN1C(=O)CN(C)C(=O)[C@@H]2CCN2C(=O)[C@H]([C@@H](C)CC)NC(=O)[C@H](CC(C)C)N(C)C(=O)C[C@@H](C(=O)N(C)C)NC(=O)[C@H](C2CCCC2)N(C)C(=O)C2(CCC2)NC(=O)[C@@H]2C[C@@H](OCC)CN2C(=O)[C@H](CCc2ccc(C(F)(F)F)c(Cl)c2)NC(=O)CN(C)C(=O)[C@@H]1Cc1ccc(C(F)(F)F)cc1 [PP0378] ([NMeL]I[Aze][Sar][NPrPhe(4-CF3)][Sar][hPhe(3-Cl-4-CF3)][Hyp](Et)[Ac4c][NMeGly(cPent)]D-NMe2; lactam N-11),B (a compound having 3 or more and less than 10 is denoted as B),B (a compound having 3 or more and less than 10 is denoted as B),110,–,–
CCCN1C(=O)CN(C)C(=O)[C@@H]2CCN2C(=O)[C@H]([C@@H](C)CC)NC(=O)[C@H](CC(C)C)N(C)C(=O)C[C@@H](C(=O)N2CCOCC2)N(C)C(=O)[C@H](C2CCCC2)N(C)C(=O)C2(CCC2)NC(=O)[C@@H]2CCCN2C(=O)[C@H](CCc2ccc(C(F)(F)F)c(Cl)c2)NC(=O)CN(C)C(=O)[C@@H]1Cc1ccc(C(F)(F)F)cc1 [PP0402] ([NMeL]I[Aze][Sar][NPrPhe(4-CF3)][Sar][hPhe(3-Cl-4-CF3)]P[Ac4c][NMeGly(cPent)][NMeD]-Morpholide; lactam N-11),B (a compound having 3 or more and less than 10 is denoted as B),C (A compound having a KD ratio of 0.1 or more and less than 3 is denoted as C),58.1,–,–
"CCCN1C(=O)CN(C)C(=O)[C@@H]2CCN2C(=O)[C@H]([C@@H](C)CC)NC(=O)[C@H](CC(C)C)N(C)C(=O)C[C@@H](C(=O)N2CCOCC2)N(C)C(=O)[C@H](C2CCCC2)N(C)C(=O)C2(CCC2)NC(=O)[C@@H]2CC(F)(F)CN2C(=O)[C@H](CCc2ccc(C(F)(F)F)c(Cl)c2)NC(=O)CN(C)C(=O)[C@@H]1Cc1ccc(C(F)(F)F)cc1 [PP0404] ([NMeL]I[Aze][Sar][NPrPhe(4-CF3)][Sar][hPhe(3-Cl-4-CF3)][Pro(4,4-F2)][Ac4c][NMeGly(cPent)][NMeD]-Morpholide; lactam N-11)",B (a compound having 3 or more and less than 10 is denoted as B),C (A compound having a KD ratio of 0.1 or more and less than 3 is denoted as C),21.7,–,–
CCCN1C(=O)CN(C)C(=O)[C@@H]2CCN2C(=O)[C@H]([C@@H](C)CC)NC(=O)[C@H](CC(C)C)N(C)C(=O)C[C@@H](C(=O)N(C)C)N(C)C(=O)[C@H](C2CCCC2)N(C)C(=O)C2(CCCC2)NC(=O)[C@@H]2CCCN2C(=O)[C@H](CCc2ccc(C(F)(F)F)c(Cl)c2)NC(=O)CN(C)C(=O)[C@@H]1Cc1ccc(C(F)(F)F)cc1 [PP0429] ([NMeL]I[Aze][Sar][NPrPhe(4-CF3)][Sar][hPhe(3-Cl-4-CF3)]P[Ac5c][NMeGly(cPent)][NMeD]-NMe2; lactam N-11),–,–,12.4,B (a compound having 3 or more and less than 10 is denoted as B),C (A compound having a KD ratio of 0.1 or more and less than 3 is denoted as C)
"CCCN1C(=O)CN(C)C(=O)[C@@H]2CCN2C(=O)[C@H]([C@@H](C)CC)NC(=O)[C@H](CC(C)C)N(C)C(=O)C[C@@H](C(=O)N(C)C)N(C)C(=O)[C@H](C2CCCC2)N(C)C(=O)C2(CCCC2)NC(=O)[C@@H]2CC(F)(F)CN2C(=O)[C@H](CCc2ccc(C(F)(F)F)c(Cl)c2)NC(=O)CN(C)C(=O)[C@@H]1Cc1ccc(C(F)(F)F)cc1 [PP0431] ([NMeL]I[Aze][Sar][NPrPhe(4-CF3)][Sar][hPhe(3-Cl-4-CF3)][Pro(4,4-F2)][Ac5c][NMeGly(cPent)][NMeD]-NMe2; lactam N-11)",–,–,9.9,B (a compound having 3 or more and less than 10 is denoted as B),C (A compound having a KD ratio of 0.1 or more and less than 3 is denoted as C)
"CCCN1C(=O)CN(C)C(=O)[C@@H]2CCN2C(=O)[C@H]([C@@H](C)CC)NC(=O)[C@H](CC(C)C)N(C)C(=O)C[C@@H](C(=O)N(C)C)N(C)C(=O)[C@H](C2CCCC2)N(C)C(=O)C2(CCC2)NC(=O)[C@@H]2CC(F)(F)CN2C(=O)[C@H](CCc2ccc(C(F)(F)F)c(Cl)c2)NC(=O)CN(C)C(=O)[C@@H]1Cc1ccc(C(F)(F)F)cc1 [PP0432] ([NMeL]I[Aze][Sar][NPrPhe(4-CF3)][Sar][hPhe(3-Cl-4-CF3)][Pro(4,4-F2)][Ac4c][NMeGly(cPent)][NMeD]-NMe2; lactam N-11)",–,–,10.7,B (a compound having 3 or more and less than 10 is denoted as B),B (a compound having 3 or more and less than 10 is denoted as B)
"CCCN1C(=O)CN(C)C(=O)[C@@H]2CCN2C(=O)[C@H]([C@@H](C)CC)NC(=O)[C@H](CC(C)C)N(C)C(=O)C[C@@H](C(=O)N2CCOCC2)N(C)C(=O)[C@H](C2CCCC2)N(C)C(=O)C2(CCCC2)NC(=O)[C@@H]2CC(C)(C)CN2C(=O)[C@H](CCc2ccc(C(F)(F)F)c(Cl)c2)NC(=O)CN(C)C(=O)[C@@H]1Cc1ccc(C(F)(F)F)cc1 [PP0452] ([NMeL]I[Aze][Sar][NPrPhe(4-CF3)][Sar][hPhe(3-Cl-4-CF3)][Pro(4,4-Me2)][Ac5c][NMeGly(cPent)][NMeD]-Morpholide; lactam N-11)",–,–,34.1,B (a compound having 3 or more and less than 10 is denoted as B),B (a compound having 3 or more and less than 10 is denoted as B)
CCCN1C(=O)CN(C)C(=O)[C@@H]2CCN2C(=O)[C@H]([C@@H](C)CC)NC(=O)[C@H](CC(C)C)N(C)C(=O)C[C@@H](C(=O)N2CCOCC2)N(C)C(=O)[C@H](C2CCCC2)N(C)C(=O)C2(CCCC2)NC(=O)[C@@H]2C[C@H](C)CN2C(=O)[C@H](CCc2ccc(C(F)(F)F)c(Cl)c2)NC(=O)CN(C)C(=O)[C@@H]1Cc1ccc(C(F)(F)F)cc1 [PP0453] ([NMeL]I[Aze][Sar][NPrPhe(4-CF3)][Sar][hPhe(3-Cl-4-CF3)][Pro(4S-Me)][Ac5c][NMeGly(cPent)][NMeD]-Morpholide; lactam N-11),–,–,20.3,B (a compound having 3 or more and less than 10 is denoted as B),C (A compound having a KD ratio of 0.1 or more and less than 3 is denoted as C)
CC[C@H](C)[C@@H]1NC(=O)[C@H](CC(C)C)N(C)C(=O)C[C@@H](C(=O)N2CCOCC2)N(C)C(=O)[C@H](C2CCCC2)N(C)C(=O)C2(CCCC2)NC(=O)[C@@H]2CCCN2C(=O)[C@H](CCc2ccc(C(F)(F)F)c(Cl)c2)NC(=O)CN(C)C(=O)[C@H](Cc2ccc(C)cc2)N2CC=CC[C@@H](C2=O)N(C)C(=O)CN(C)C1=O [PP0460],–,–,5.4,C (A compound having a KD ratio of 0.1 or more and less than 3 is denoted as C),C (A compound having a KD ratio of 0.1 or more and less than 3 is denoted as C)

# Source: patent US20240158446A1, “CYCLIC COMPOUND HAVING SELECTIVE INHIBITORY ACTION ON KRAS OVER HRAS AND NRAS” (CHUGAI SEIYAKU KABUSHIKI KAISHA, priority 2021, published 2024)
